In data set [1] the target is T1, D(4) dopamine receptor (Homo sapiens, UniProt P21917).
T1 sequence (P21917 whole entry): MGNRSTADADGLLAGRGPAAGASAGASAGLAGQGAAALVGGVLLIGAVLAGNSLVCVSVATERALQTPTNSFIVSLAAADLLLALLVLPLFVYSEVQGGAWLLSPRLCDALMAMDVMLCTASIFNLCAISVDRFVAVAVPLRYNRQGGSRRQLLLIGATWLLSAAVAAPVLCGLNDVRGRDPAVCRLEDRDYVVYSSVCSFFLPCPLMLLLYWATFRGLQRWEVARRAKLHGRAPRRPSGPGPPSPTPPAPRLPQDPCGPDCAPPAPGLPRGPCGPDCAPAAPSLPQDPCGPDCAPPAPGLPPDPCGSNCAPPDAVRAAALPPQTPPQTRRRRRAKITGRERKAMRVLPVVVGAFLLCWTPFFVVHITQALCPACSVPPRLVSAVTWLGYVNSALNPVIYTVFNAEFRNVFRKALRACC
Kind of data set: DRUGMATRIX: Dopamine D4.2 radioligand binding (ligand: [3H] Spiperone). It counts as cell membranes, CHO-K1, Membrane. Conditions: cho-k1; Not Active = under 50% inhibition at 10 µM.

Data set [2] deals with T2, Progesterone receptor (Bos taurus, UniProt Q690N0).
T2 sequence (Q690N0 whole entry): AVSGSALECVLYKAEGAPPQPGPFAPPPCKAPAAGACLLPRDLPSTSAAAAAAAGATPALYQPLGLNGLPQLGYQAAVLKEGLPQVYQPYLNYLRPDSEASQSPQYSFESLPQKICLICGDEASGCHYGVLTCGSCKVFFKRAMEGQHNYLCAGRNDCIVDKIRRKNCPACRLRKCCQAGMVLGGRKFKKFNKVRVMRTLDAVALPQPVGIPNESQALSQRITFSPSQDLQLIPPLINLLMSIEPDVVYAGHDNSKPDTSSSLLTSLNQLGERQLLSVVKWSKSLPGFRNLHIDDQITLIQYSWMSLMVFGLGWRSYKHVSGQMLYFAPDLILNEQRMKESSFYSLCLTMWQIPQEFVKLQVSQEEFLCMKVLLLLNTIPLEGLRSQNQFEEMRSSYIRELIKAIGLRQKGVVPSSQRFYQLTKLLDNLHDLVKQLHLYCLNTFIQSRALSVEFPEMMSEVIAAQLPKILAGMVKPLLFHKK
Kind of data set: DRUGMATRIX: Progesterone radioligand binding (ligand: [3H] R-5020). It counts as tissue-based, Uterus. Conditions: Not Active = under 50% inhibition at 10 µM.

The target of data set [3] is Cytochrome P450 2E1 (Homo sapiens, UniProt P05181). Conditions: bti-tn-5b1-4. Also: in other assays of this panel Not Active means under 50% inhibition at 10 µM.
In data set [4] the target is T3, C-X-C chemokine receptor type 2 (Homo sapiens, UniProt P25025). Also: in other assays of this panel Not Active means under 50% inhibition at 10 µM.
T3 sequence (P25025 whole entry): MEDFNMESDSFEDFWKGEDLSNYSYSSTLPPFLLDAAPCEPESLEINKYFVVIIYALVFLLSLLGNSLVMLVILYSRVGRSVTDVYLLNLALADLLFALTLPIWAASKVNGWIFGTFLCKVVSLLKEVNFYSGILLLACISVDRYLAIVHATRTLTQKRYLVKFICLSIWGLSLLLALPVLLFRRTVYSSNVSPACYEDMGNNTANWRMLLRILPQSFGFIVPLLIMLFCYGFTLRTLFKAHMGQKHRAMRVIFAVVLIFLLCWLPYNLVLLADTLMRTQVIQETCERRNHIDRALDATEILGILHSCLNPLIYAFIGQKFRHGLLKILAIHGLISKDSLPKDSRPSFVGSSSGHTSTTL
The class given is cell membranes, CHO-K1, Membrane. The note with it: cho-k1.

Data set [5] addresses Beta-3 adrenergic receptor (Homo sapiens, UniProt P13945). As to the kind of experiment: DRUGMATRIX: Adrenergic beta3 radioligand binding (ligand: [125I] Cyanopindolol). The class given is cell membranes, HEK293, Membrane. The note with it: hek293; Not Active = under 50% inhibition at 10 µM.
The target in data set [6] is Receptor tyrosine-protein kinase erbB-2 (Homo sapiens, UniProt P04626). It counts as cell-based. Conditions: insect cells.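 Also: inhibition of HER2 kinase enzyme activity, measured with Poly(Glu:Tyr) as the phosphorylation substrate; in other assays of this panel Not Active means under 50% inhibition at 10 µM.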
The target of data set [7] is Tyrosine-protein kinase Fyn (Homo sapiens, UniProt P06241). As to the kind of experiment: biochemical. The note with it: insect cells. It counts as cell-based, Insect cells.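 Also: enzymatic inhibition of Fyn kinase activity measured with Poly(Glu:Tyr) as the phosphorylation substrate; in other assays of this panel Not Active means under 50% inhibition at 10 µM.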
Tyrosine-protein kinase Fyn, sequence (P06241 whole entry): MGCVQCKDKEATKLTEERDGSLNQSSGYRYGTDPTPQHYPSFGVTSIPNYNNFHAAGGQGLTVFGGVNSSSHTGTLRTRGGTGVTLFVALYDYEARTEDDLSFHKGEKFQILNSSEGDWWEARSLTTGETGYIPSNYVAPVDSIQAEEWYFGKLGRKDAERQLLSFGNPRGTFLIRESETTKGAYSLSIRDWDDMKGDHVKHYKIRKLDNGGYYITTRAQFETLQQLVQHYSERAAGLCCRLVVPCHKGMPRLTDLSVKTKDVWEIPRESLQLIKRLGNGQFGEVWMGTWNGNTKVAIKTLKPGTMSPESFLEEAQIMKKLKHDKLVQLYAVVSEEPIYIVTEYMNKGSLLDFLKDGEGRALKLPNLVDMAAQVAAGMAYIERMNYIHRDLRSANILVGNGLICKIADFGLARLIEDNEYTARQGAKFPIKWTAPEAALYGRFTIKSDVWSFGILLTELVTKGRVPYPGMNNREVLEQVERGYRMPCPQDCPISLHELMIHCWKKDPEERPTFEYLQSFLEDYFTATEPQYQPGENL

Cytochrome P450 2E1, sequence (P05181 whole entry): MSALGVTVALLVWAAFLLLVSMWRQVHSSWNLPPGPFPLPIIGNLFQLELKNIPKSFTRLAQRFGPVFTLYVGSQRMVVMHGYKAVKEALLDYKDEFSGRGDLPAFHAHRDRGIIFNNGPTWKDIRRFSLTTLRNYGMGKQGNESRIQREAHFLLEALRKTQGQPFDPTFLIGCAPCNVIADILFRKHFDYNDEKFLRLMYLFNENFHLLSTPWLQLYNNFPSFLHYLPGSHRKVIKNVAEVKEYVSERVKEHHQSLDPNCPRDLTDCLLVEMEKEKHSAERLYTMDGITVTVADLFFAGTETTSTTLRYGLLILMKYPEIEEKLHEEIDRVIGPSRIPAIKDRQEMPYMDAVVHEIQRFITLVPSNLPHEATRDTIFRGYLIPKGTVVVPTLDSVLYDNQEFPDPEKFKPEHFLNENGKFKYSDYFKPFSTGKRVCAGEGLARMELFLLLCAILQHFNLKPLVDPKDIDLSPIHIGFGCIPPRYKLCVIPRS
Beta-3 adrenergic receptor, sequence (P13945 whole entry): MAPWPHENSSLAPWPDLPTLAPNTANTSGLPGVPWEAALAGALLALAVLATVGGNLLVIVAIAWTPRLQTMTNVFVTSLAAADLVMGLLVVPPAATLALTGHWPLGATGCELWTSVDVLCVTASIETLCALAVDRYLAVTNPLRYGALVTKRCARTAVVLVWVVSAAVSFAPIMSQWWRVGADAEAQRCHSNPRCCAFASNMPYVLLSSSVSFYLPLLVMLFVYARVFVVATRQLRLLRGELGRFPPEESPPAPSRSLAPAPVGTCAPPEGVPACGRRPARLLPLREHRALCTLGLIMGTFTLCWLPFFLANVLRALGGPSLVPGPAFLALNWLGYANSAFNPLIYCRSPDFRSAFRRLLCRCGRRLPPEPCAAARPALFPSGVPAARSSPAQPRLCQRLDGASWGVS
Receptor tyrosine-protein kinase erbB-2, sequence (P04626 whole entry): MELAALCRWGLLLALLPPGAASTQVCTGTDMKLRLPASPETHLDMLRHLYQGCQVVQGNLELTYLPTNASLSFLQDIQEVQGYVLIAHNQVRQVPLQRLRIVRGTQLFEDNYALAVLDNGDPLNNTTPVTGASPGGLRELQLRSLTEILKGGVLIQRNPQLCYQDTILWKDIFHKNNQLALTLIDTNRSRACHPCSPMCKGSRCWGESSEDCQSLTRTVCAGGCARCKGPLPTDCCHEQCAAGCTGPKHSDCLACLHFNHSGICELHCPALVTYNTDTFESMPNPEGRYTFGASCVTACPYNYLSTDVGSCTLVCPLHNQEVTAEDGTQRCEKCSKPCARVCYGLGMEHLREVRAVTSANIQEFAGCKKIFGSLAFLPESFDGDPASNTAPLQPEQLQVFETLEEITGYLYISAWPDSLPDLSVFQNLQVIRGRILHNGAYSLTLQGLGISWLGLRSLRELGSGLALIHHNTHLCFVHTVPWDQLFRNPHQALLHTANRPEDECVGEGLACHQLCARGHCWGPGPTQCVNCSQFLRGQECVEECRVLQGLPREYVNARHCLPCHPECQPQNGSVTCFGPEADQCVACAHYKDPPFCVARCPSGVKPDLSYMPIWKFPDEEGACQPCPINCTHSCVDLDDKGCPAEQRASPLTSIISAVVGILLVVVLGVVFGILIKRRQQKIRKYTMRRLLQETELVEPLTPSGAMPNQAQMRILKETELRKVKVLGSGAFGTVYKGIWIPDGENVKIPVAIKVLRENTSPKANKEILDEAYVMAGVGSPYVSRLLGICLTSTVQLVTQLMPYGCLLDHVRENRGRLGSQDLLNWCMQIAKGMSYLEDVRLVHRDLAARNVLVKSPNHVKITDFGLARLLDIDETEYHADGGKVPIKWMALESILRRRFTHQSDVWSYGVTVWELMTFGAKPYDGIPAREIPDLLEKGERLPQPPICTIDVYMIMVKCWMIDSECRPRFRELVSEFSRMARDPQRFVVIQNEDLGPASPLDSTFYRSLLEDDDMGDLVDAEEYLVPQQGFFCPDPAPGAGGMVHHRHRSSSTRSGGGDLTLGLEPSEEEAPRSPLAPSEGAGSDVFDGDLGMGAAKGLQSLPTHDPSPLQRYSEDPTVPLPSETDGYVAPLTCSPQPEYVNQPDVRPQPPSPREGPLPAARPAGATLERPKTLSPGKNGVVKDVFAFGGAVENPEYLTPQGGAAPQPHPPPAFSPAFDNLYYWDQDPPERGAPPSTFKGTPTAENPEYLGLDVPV

In the case of `C#C[C@]1(O)CC[C@H]2[C@@H]3CCC4=CC(=O)CC[C@@H]4[C@H]3CC[C@@]21C` [NORETHINDRONE], the IC50 result was “Not Active” in data set [1]; 9.34 nM in data set [2] (read-out: IC50); “Not Active” in data set [3]; “Not Active” in data set [4]; “Not Active” in data set [5]; “Not Active” in data set [6]. In addition, the IC50 entry in data set [7] is “Not Active”. The figures for the inhibitory constant (Ki) in data set [2] (read-out: Ki) and in data set [3] were 1.22 nM and “Not Active”, respectively.

Consider `C=CCN1CC[C@]23c4c5ccc(O)c4O[C@H]2/C(=N/N=C2\CC[C@@]4(O)[C@H]6Cc7ccc(O)c8c7[C@@]4(CCN6CC=C)[C@H]2O8)CC[C@@]3(O)[C@H]1C5` [NALOXONAZINE], for which the 50% inhibitory concentration (IC50) entry in data set [1], in data set [2], in data set [3], in data set [4], in data set [5] and in data set [6] was “Not Active” each time. Further, the IC50 entry in data set [7] was “Not Active”. Moreover, the Ki result in data set [3] is “Not Active”.

On to `Oc1ncnc2[nH]ncc12` [ALLOPURINOL], for which the 50% inhibitory concentration (IC50) entry in data set [1], in data set [2], in data set [3], in data set [4], in data set [5] and in data set [6] was “Not Active” throughout. Moreover, in data set [7], the IC50 entry is given as “Not Active”. Besides, the inhibition constant (Ki) entry in data set [3] is reported as “Not Active”.

Regarding `CCC1(c2ccccc2)C(=O)NC(=O)NC1=O` [PHENOBARBITAL], the 50% inhibitory concentration (IC50) result in data set [1], in data set [2], in data set [3], in data set [4], in data set [5] and in data set [6] was “Not Active” in each case. Besides, the IC50 result in data set [7] is given as “Not Active”. Further, in data set [3], the inhibitory constant (Ki) result is listed as “Not Active”.

Turning to `CCCCCCNC(=O)n1cc(F)c(=O)[nH]c1=O` [CARMOFUR], the IC50 entry in data set [1], in data set [2], in data set [3], in data set [4], in data set [5] and in data set [6] was “Not Active” in each case. Further, in data set [7], the IC50 result was “Not Active”. Further, in data set [3], the inhibitory constant (Ki) entry was “Not Active”.

In the case of `O=C(O)CCc1nc(-c2ccccc2)c(-c2ccccc2)o1` [OXAPROZIN], the concentration for half-maximal inhibition (IC50) result in data set [1], in data set [2], in data set [3], in data set [4], in data set [5] and in data set [6] was “Not Active” in each case. For the same compound, in data set [7], the IC50 entry is given as “Not Active”. Moreover, the Ki entry in data set [3] was “Not Active”.

Take `CCN1C[C@]2(COC)[C@H](O)C[C@H](OC)[C@@]34[C@@H]5C[C@@]6(O)[C@H](OC(=O)c7ccccc7)[C@@H]5[C@@](OC(C)=O)([C@@H]([C@H](OC)[C@H]23)[C@@H]14)[C@@H](O)[C@@H]6OC` [ACONITINE]: the IC50 result in data set [1], in data set [2], in data set [3], in data set [4], in data set [5] and in data set [6] was “Not Active” each time. The IC50 result in data set [7] is on record as “Not Active”. The inhibition constant (Ki) result in data set [3] is on record as “Not Active”.

In the case of `Nc1nc(F)nc2c1ncn2[C@@H]1O[C@H](CO)[C@@H](O)[C@@H]1O` [FLUDARABINE], the IC50 result in data set [1], in data set [2], in data set [3], in data set [4], in data set [5] and in data set [6] was “Not Active” in each case. Also, the IC50 entry in data set [7] is “Not Active”. Further, the inhibitory constant (Ki) entry in data set [3] was “Not Active”.

As for `O=C1CN(/N=C/c2ccc([N+](=O)[O-])o2)C(=O)N1` [NITROFURANTOIN], the IC50 entry in data set [1], in data set [2], in data set [3], in data set [4], in data set [5] and in data set [6] was “Not Active” each time. Moreover, the concentration for half-maximal inhibition (IC50) entry in data set [7] is on record as “Not Active”. Besides, the Ki result in data set [3] is on record as “Not Active”.

For `CC12CCC(CC1=O)C2(C)C` (centres undefined) [CAMPHOR], the IC50 result in data set [1], in data set [2], in data set [3], in data set [4], in data set [5] and in data set [6] was “Not Active” throughout. The 50% inhibitory concentration (IC50) entry in data set [7] was “Not Active”. Moreover, in data set [3], the Ki result is given as “Not Active”.

As for `Nc1nc(N)c2nc(CNc3ccc(C(=O)N[C@@H](CCC(=O)O)C(=O)O)cc3)cnc2n1` [AMINOPTERIN], the half-inhibitory concentration (IC50) result in data set [1], in data set [2], in data set [3], in data set [4], in data set [5] and in data set [6] was “Not Active” each time. Besides, the IC50 entry in data set [7] is given as “Not Active”. Also, the inhibition constant (Ki) entry in data set [3] is “Not Active”.

In the case of `Cc1c(N)nc([C@H](CC(N)=O)NC[C@H](N)C(N)=O)nc1C(=O)N[C@H](C(=O)N[C@H](C)[C@@H](O)[C@H](C)C(=O)N[C@H](C(=O)NCCc1nc(-c2nc(C(=O)NCCC[S+](C)C)cs2)cs1)[C@@H](C)O)[C@@H](O[C@@H]1O[C@@H](CO)[C@@H](O)[C@H](O)[C@@H]1O[C@H]1O[C@H](CO)[C@@H](O)[C@H](OC(N)=O)[C@@H]1O)c1c[nH]cn1.[Br-]` [BLEOMYCIN A2], the IC50 result in data set [1], in data set [2], in data set [3], in data set [4], in data set [5] and in data set [6] was “Not Active” in each case. In addition, the 50% inhibitory concentration (IC50) result in data set [7] is given as “Not Active”. For the same compound, the inhibition constant Ki entry in data set [3] was “Not Active”.

Turning to `OC[C@H]1O[C@@H]2O[C@H]3[C@H](O)[C@@H](O)[C@@H](O[C@H]4[C@H](O)[C@@H](O)[C@@H](O[C@H]5[C@H](O)[C@@H](O)[C@@H](O[C@H]6[C@H](O)[C@@H](O)[C@@H](O[C@H]7[C@H](O)[C@@H](O)[C@@H](O[C@H]1[C@H](O)[C@H]2O)O[C@@H]7CO)O[C@@H]6CO)O[C@@H]5CO)O[C@@H]4CO)O[C@@H]3CO` [ALFADEX], the concentration for half-maximal inhibition (IC50) entry in data set [1], in data set [2], in data set [3], in data set [4], in data set [5] and in data set [6] was “Not Active” each time. Also, in data set [7], the IC50 result is “Not Active”. In addition, the inhibition constant Ki entry in data set [3] was “Not Active”.

Turning to `O=C(Nc1ccc(Cl)c(Cl)c1)c1cc(Cl)cc(Cl)c1O` [3,3',4',5-TETRACHLOROSALICYLANILIDE], the IC50 entry in data set [1], in data set [2], in data set [3], in data set [4], in data set [5] and in data set [6] was “Not Active” in each case. Also, the IC50 entry in data set [7] was “Not Active”. For the same compound, in data set [3], the Ki entry is listed as “Not Active”.

For `COC(=O)Nc1nc2ccc(Sc3ccccc3)cc2[nH]1` [FENBENDAZOLE], the half-maximal inhibitory concentration (IC50) entry in data set [1], in data set [2], in data set [3], in data set [4], in data set [5] and in data set [6] was “Not Active” throughout. The 50% inhibitory concentration (IC50) result in data set [7] is “Not Active”. For the same compound, in data set [3], the Ki entry was “Not Active”.

As to `Nc1ccc(C(=O)O)c(O)c1` [AMINOSALICYLIC ACID], the IC50 entry in data set [1], in data set [2], in data set [3], in data set [4], in data set [5] and in data set [6] was “Not Active” throughout. The IC50 entry in data set [7] is recorded as “Not Active”. Moreover, the inhibitory constant (Ki) entry in data set [3] is on record as “Not Active”.

The term IC50 denotes the concentration needed to halve the response being measured. One may read the Ki as the dissociation constant of the complex between target and ligand, obtained from inhibition or displacement.
